Key:
[1] = Storage of nicotine Eudragit E 100 solutions with antioxidants, visual colour (Pantone Colour Code); format: physicochemical; details: stored in the dark 4 weeks at 60° C. or 80° C.
From the text: Since polyisobutylenes contain terminal double bonds and therefore have to be stabilised by the antioxidant butyl hydroxytoluene, it was examined whether the avoidance of nicotine discolouration can be achieved by antioxidants. Pharmaceutically acceptable antioxidants were therefore added to nicotine in graded-concentrations in 2 test series to form solutions of Eudragit E 100 (cationic copolymer based on dimethylaminoethyl methacrylate, butyl methacrylate and methyl methacrylate in a ratio of 2:1:1). These solutions were stored in the dark for 4 weeks at 60° C. or 80° C.
Butyl hydroxytoluene (BHT), ascorbyl palmitate and tocopherol were tested as antioxidants.
The samples were examined visually after storage, and the relevant Pantone Colour Code for the colour of the sample was determined. The Pantone Colour Code is an internationally used colour system developed by the company Pantone LLC, USA. As a result it is possible to determine that the antioxidants were unable to suppress the discolouration of the nicotine.

[2] = Analysis of nicotine degradation products in stored samples; format: physicochemical; details: conclusion from degradation products
Description: In order to check which decomposition products of nicotine cause the brown colour, sample Nic 0007 was analysed.

CCCCCCCCCCCCCCCC(=O)OC[C@H](O)[C@H]1OC(=O)C(O)=C1O [ascorbyl palmitate]
suppression of the discolouration of nicotine [1]: does not prevent the brown colouration of nicotine
decomposition of nicotine [2]: does prevent its decomposition

From US20200230074A1, “NICOTINE-CONTAINING TRANSPARENT TRANSDERMAL THERAPEUTIC SYSTEM” (LTS Lohmann Theraple-Systeme AG, priority 2017, published 2020)
